Laboratory results as given in patent US20230113037A1 (Bayer Aktiengesellschaft, priority 2019, published 2023).
Read-outs that look alike come from different tables or passages of the source.

Assays:
AHR [1] = target: T1, AHR (Mus musculus, UniProt P30561); test: In vitro assay 3: antagonism in mouse cell line (AHR transactivation, firefly luciferase reporter, kynurenic acid prestimulated); type: cell-based; conditions: 200 μM kynurenic acid, 20 hours, read-out: AHR Antagonism Mouse IC50
T1 sequence (P30561 1-848 P471L/N533S/M589L): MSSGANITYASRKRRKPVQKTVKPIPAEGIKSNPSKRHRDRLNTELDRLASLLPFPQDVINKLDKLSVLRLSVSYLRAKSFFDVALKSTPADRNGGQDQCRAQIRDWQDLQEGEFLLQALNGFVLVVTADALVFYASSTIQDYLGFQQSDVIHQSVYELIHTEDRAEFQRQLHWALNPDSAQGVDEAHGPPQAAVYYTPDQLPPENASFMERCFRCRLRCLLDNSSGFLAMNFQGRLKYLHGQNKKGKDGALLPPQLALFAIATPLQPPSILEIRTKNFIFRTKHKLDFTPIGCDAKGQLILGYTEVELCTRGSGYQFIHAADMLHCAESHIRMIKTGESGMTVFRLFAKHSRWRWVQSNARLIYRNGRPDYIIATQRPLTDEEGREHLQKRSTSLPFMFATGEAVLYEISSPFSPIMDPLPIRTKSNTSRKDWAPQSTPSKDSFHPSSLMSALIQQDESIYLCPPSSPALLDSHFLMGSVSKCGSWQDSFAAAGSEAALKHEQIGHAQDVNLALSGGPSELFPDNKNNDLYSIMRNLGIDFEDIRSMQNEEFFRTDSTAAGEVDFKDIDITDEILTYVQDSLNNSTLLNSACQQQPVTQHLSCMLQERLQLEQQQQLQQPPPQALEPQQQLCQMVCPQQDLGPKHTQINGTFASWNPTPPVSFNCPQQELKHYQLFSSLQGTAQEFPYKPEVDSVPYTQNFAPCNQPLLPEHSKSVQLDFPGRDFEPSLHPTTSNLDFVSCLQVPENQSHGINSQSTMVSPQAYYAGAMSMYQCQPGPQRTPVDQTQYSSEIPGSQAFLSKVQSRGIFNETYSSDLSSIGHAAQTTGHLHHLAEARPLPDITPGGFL
Procedure, shortened: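 Mouse cells stably carrying a DRE-driven AHR-inducible firefly luciferase reporter were prestimulated with the endogenous agonist kynurenic acid before compound addition. Luciferase read by SteadyGlo; cells without kynurenic acid served as full-inhibition control, with normalization to positive and negative controls. Repeat tests reported as mean or median.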

AHR [2] = target: T2, AHR (Homo sapiens, UniProt P35869); test: In vitro assay 1: antagonism in human cell line (AHR transactivation, firefly luciferase reporter, kynurenic acid prestimulated); type: cell-based; conditions: AHR Antagonism Human IC50 [M]
T2 construct: U87 MG glioblastoma cells (ATCC #HTB-14) endogenously expressing AHR; endogenous in cells; host or cells: U87 MG glioblastoma cells (ATCC #HTB-14)
T2 sequence (P35869 11-848): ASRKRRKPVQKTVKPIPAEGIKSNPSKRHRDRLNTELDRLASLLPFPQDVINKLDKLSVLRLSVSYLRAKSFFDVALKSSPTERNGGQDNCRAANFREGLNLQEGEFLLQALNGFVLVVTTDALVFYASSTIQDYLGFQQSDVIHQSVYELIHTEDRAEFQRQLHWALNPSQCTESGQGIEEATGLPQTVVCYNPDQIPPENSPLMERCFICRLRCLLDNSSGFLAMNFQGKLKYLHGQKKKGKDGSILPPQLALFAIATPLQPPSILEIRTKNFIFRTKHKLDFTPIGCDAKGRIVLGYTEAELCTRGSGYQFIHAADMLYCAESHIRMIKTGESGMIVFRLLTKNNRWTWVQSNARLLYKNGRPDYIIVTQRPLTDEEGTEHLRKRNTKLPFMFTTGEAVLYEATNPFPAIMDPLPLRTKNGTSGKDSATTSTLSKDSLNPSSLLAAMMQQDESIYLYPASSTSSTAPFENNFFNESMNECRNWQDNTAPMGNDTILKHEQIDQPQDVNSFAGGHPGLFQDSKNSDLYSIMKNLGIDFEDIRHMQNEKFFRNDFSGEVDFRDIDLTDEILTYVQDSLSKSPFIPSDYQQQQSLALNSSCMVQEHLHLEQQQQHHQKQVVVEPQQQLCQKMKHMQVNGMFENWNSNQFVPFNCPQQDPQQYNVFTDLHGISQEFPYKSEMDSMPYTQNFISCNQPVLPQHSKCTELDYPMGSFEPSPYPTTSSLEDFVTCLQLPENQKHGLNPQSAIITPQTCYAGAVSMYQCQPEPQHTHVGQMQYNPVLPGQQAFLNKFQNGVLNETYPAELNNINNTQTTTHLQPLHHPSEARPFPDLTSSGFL
Procedure, shortened: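 U87 MG + DRE-firefly/constitutive-Renilla stable reporters; kynurenic acid prestim; dual-luc read; Renilla = tox; normalized vs pos/neg controls (pos: 150 μM KYNA + 5 μM staurosporine).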

[3] = Hepa 1c1c7 cells, firefly luciferase reporter

IC50 (AHR [1]; [3]) [nM]	IC50 (AHR [2]; firefly luciferase reporter) [M]	IC50 (AHR [1]; mouse Hepa 1c1c7 cells) [nM]	IC50 (AHR [2]) [M]	Compound
24.7	2.4e-08	–	–	C[C@@H]1CN(C(=O)[C@@H](C)Nc2nc3c(Br)cccc3c3nc(-c4cnn(C)c4)nn23)CCN1C [Example 910, (2R)-2-{[7-bromo-2-(1-methyl-1H-pyrazol-4-yl)[1,2,4]triazolo[1,5-c]quinazolin-5-yl]amino}-1-[(3R)-3,4-dimethylpiperazin-1-yl]propan-1-one]
–	–	2.52	7.43e-09	CCCNC(=O)[C@@H](C)Nc1nc2c(Br)cccc2c2nc(-c3ccc(Cl)cc3OC(F)(F)F)nn12 [Example 693, N^2-{7-bromo-2-[4-chloro-2-(trifluoromethoxy)phenyl][1,2,4]triazolo[1,5-c]quinazolin-5-yl}-N-propyl-D-alaninamide]
95	8e-08	–	–	C[C@@H](Nc1nc2c(Br)cccc2c2nc(-c3cnn(C)c3)nn12)C(=O)N1C[C@H]2C[C@@H]1CN2C [Example 902]
291	1.71e-07	–	–	C[C@@H](Nc1nc2c(Br)cccc2c2nc(-c3cnn(C)c3)nn12)C(=O)NCCN1CCN(C)CC1 [Example 783, N^2-[7-bromo-2-(1-methyl-1H-pyrazol-4-yl)[1,2,4]triazolo[1,5-c]quinazolin-5-yl]-N-[2-(4-methylpiperazin-1-yl)ethyl]-D-alaninamide]
–	–	1.03	3.4e-09	CCn1nc(C)c(-c2nc3c4cccc(C(F)(F)F)c4nc(N[C@@H]4CCCCNC4=O)n3n2)c1C [Example 738, (3R)-3-{[2-(1-ethyl-3,5-dimethyl-1H-pyrazol-4-yl)-7-(trifluoromethyl)[1,2,4]triazolo[1,5-c]quinazolin-5-yl]amino}azepan-2-one]
9.92	4.03e-10	–	–	COc1ccc(-c2nc3c4cccc(S(C)(=O)=O)c4nc(N[C@@H]4CCCCNC4=O)n3n2)cc1 [Example 842, (3R)-3-{[7-(methanesulfonyl)-2-(4-methoxyphenyl)[1,2,4]triazolo[1,5-c]quinazolin-5-yl]amino}azepan-2-one]
68.6	2.04e-09	–	–	COc1ccc(-c2nc3c4cccc(S(C)(=N)=O)c4nc(N[C@@H]4CCCCNC4=O)n3n2)cc1 (mixture of isomers) [Example 853, (3R)-3-{[7-(S-methanesulfonimidoyl)-2-(4-methoxyphenyl)[1,2,4]triazolo[1,5-c]quinazolin-5-yl]amino}azepan-2-one]
2080	4.79e-07	–	–	CCn1cc(-c2nc3c4cccc(S(C)(=O)=O)c4nc(N[C@@H]4CNCCNC4=O)n3n2)c(C)n1 [Example 945, (6R)-6-{[2-(1-ethyl-3-methyl-1H-pyrazol-4-yl)-7-(methanesulfonyl)[1,2,4]triazolo[1,5-c]quinazolin-5-yl]amino}-1,4-diazepan-5-one]
18.7	1.74e-08	–	–	C[C@@H](Nc1nc2c(Br)cccc2c2nc(-c3cnn(C)c3)nn12)C(=O)N1C[C@@H]2C[C@H]1CO2 [Example 915, (2R)-2-{[7-bromo-2-(1-methyl-1H-pyrazol-4-yl)[1,2,4]triaozlo[1,5-c]quinazolin-5-yl]amino}-1-[(1S,4S)-2-oxa-5-azabicyclo[2.2.1]heptna-5-yl]propan-1-one]

The next lines start with the molecule.

Compound	IC50 (AHR [1]; [3]) [nM]	IC50 (AHR [2]; firefly luciferase reporter) [M]	IC50 (AHR [1]; mouse Hepa 1c1c7 cells) [nM]	IC50 (AHR [2]) [M]
CCn1cc(-c2nc3c4cccc(C(F)(F)F)c4nc(N[C@@H]4CCCCNC4=O)n3n2)c(C)n1 [Example 674, (3R)-3-{[2-(1-ethyl-3-methyl-1H-pyrazol-4-yl)-7-(trifluoromethyl)[1,2,4]triazolo[1,5-c]quinazolin-5-yl]amino}azepan-2-one]	–	–	0.669	3.44e-10
Cc1noc(-c2nc3c4ccccc4nc(N[C@@H]4CCCCNC4=O)n3n2)n1 [Example 131, (3R)-3-{[2-(3-methyl-1,2,4-oxadiazol-5-yl)[1,2,4]triazolo[1,5-c]quinazolin-5-yl]amino}azepan-2-one]	–	–	93.8	1.79e-07
O=C1NCCCC[C@H]1Nc1nc2ccccc2c2nc(-c3cccnc3F)nn12 [Example 640, (3R)-3-{[2-(2-fluoropyridin-3-yl)[1,2,4]triazolo[1,5-c]quinazolin-5-yl]amino}azepan-2-one]	–	–	30.7	2.54e-08
N#Cc1ccc(-c2nc3c4ccccc4nc(N[C@H]4CCCCNC4=O)n3n2)cc1 [Example 437, 4-(5-{[(3S)-2-oxoazepan-3-yl]amino}[1,2,4]triazolo[1,5-c]quinazolin-2-yl)benzonitrile]	–	–	7.87	3.65e-08
COc1cccc(-c2nc3c4ccccc4nc(N[C@@H](CO)C(N)=O)n3n2)c1 [Example 85, N^2-[2-(3-methoxyphenyl)[1,2,4]triazolo[1,5-c]quinazolin-5-yl]-L-serinamide]	–	–	229	4.95e-07
CN(C)CCn1cc(-c2nc3c4ccccc4nc(N[C@@H]4CCCCNC4=O)n3n2)cn1 [Example 599, (3R)-3-[(2-{1-[2-(dimethylamino)ethyl]-1H-pyrazol-4-yl}[1,2,4]triazolo[1,5-c]quinazolin-5-yl)amino]azepan-2-one]	–	–	2120	5.81e-07
N#Cc1ccc(-c2nc3c4cccc(Br)c4nc(N[C@@H]4CCNC4=O)n3n2)cc1 [Example 561, 4-(7-bromo-5-{[(3R)-2-oxopyrrolidin-3-yl]amino}[1,2,4]triazolo[1,5-c]quinazolin-2-yl)benzonitrile]	–	–	7.55	3.96e-09
O=C1NCCCC[C@H]1Nc1nc2ccccc2c2nc(-c3ccn4ccnc4c3)nn12 [Example 390, (3R)-3-{[2-(Imidazo[1,2-a]pyridin-7-yl)[1,2,4]triazolo[1,5-c]quinazolin-5-yl]amino}azepan-2-one]	–	–	1.02	1.38e-09
O=C1NCCCC[C@H]1Nc1nc2c(Cl)cccc2c2nc(-c3ccc(F)cc3)nn12 [Example 554, (3R)-3-{[7-chloro-2-(4-fluorophenyl)[1,2,4]triazolo[1,5-c]quinazolin-5-yl]amino}azepan-2-one]	–	–	2.45	7.68e-09
COc1ccc(-c2nc3c4c(C(F)(F)F)cccc4nc(N[C@@H]4CCCCNC4=O)n3n2)cc1 [Example 172, (3R)-3-{[2-(4-methoxyphenyl)-10-(trifluoromethyl)[1,2,4]triazolo[1,5-c]quinazolin-5-yl]amino}azepan-2-one]	–	–	12	1.29e-08
N#Cc1cccc2c1nc(N[C@@H]1CCCCNC1=O)n1nc(-c3ccc(F)cc3)nc21 [Example 402, 2-(4-Fluorophenyl)-5-{[(3R)-2-oxoazepan-3-yl]amino}[1,2,4]triazolo[1,5-c]quinazoline-7-carbonitrile]	–	–	26.1	8.32e-09
CC[C@@H](Nc1nc2ccccc2c2nc(-c3cccc(OC(F)(F)F)c3)nn12)C(N)=O [Example 314, (2R)-2-({2-[3-(trifluoromethoxy)phenyl][1,2,4]triazolo[1,5-c]quinazolin-5-yl}amino)butanamide]	–	–	0.922	6.9e-09
